Experiment [1] deals with T1, luciferase-FKBP12^F36V (Homo sapiens, UniProt P62942, F37V).
T1 construct: luciferase (fusion partner); expressed in transfected cells; host or cells: MV4;11 cells transplanted into NSG mice
In words: Pharmacodynamic evaluation: bioluminescence of MV4;11 luc-FKBP12F36V cells in mice. The settings on record: for Total flux for each mouse: single mice. The arrangement: Total flux for each mouse: unit not given here. The class given is in vivo, mice (NSG). The source says:
For IP injections, dTAG-13 and dTAG^V-1 were formulated by dissolving into DMSO and then diluting with 20% solutol (Sigma): 0.9% sterile saline (Moltox) (w:v) with the final formulation containing 5% DMSO. […] Formulations were stable at room temperature for 7 days. For IV injections, dTAG-13 and dTAG^V-1 were formulated by dissolving into DMSO and then diluting with 5% solutol (Sigma): 0.9% sterile saline (Moltox) (w:v) with the final formulation containing 5% DMSO.
All procedures for PD studies were compliant with ethical regulations for animal testing and research, and were approved by and performed in accordance with standards of the IACUC at Dana–Farber Cancer Institute. Housing conditions for mice at Dana–Farber Cancer Institute were as follows: lights on = 6 AM, lights off = 6 PM, average ambient temperature = 72 °F, and average humidity = 35–55%. Evaluation of degradation of luciferase in vivo was performed using MV4;11 luc-FKBP12^F36V cells and bioluminescent measurements[6],[48]. In brief, 250,000 viable MV4;11 luc-FKBP12^F36V cells were transplanted by tail-vein injection in 8-week-old immunocompromised female mice (NOD.Cg-Prkdc^scidIl2rg^tm1Wjl/SzJ, NSG; Jackson Laboratory, #005557). Bioluminescent measurements were performed following IP injection of 75 mg kg^−1 D-Luciferin (Promega). Mice were then anesthetized with 2−3% isoflurane, imaged on an IVIS Spectrum (Caliper Life Sciences), and total body bioluminescence was determined using a standardized region of interest. Two and seven days after tail-vein injection, bioluminescent measurements were performed to confirm engraftment. […] For treatments, compounds were formulated as described above, administered via IP injection and bioluminescent measurements were performed daily as described in Fig. 2d, beginning 8 days after tail-vein injection.

The test system of experiment [2] is EWS502 FKBP12^F36V-EWS/FLI; EWS/FLI^−/− cells. In words: Relative growth of EWS502 FKBP12F36V-EWS/FLI; EWS/FLI-/- cells (CellTiter-Glo). In kind it is cell-based. The settings on record: for Relative growth (luminescence values relative to day 0): EWS502 FKBP12F36V-EWS/FLI, EWS/FLI-/-; for Antiproliferation (relative growth): replicate values. The protocol:
(§1) Cell viability was assayed in 2D-adherent or ultra-low adherent 3D-spheroids using CellTiter-Glo (Promega)[6],[15]. Luminescence was measured on an Envision 2104 plate reader (PerkinElmer) and Fluostar Omega Reader (BMG Labtech) and data was analyzed using GraphPad PRISM v8. Synergy assessments were performed using CellTiter-Glo (Promega) with the following modifications to the protocol described in the ref. [34]. In brief, EWS502 cells were plated at 1000 cells per well in 50 µL of appropriate media in 384-well white culture plates (Corning) allowed to adhere overnight, and 100 nL of compounds were added using a Janus Workstation pin tool (PerkinElmer) for 72 h. Cell viability was measured by addition of 10 µL of CellTiter-glo (Promega), followed by incubation for 15 minutes at room temperature. Luminescence was measured on an Envision 2104 plate reader (PerkinElmer) and data was analyzed using GraphPad PRISM v8.
(In general: Cellular ATP, detected with luciferase, serves as a proxy for viable cell number.)

Experiment [3] relates to EWS502 FKBP12^F36V-GFP cells. In words: Relative growth of EWS502 FKBP12F36V-GFP cells (CellTiter-Glo). The class given is cell-based. The protocol:
as §1

“And” between values parts separate entries of the source, which are not always exact repeats. Equal entries are not always repeated.

T1 sequence (P62942 2-108 F37V limits assumed): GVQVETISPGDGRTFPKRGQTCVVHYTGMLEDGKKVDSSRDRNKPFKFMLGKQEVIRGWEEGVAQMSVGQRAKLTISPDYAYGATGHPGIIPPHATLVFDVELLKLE

Turning to `CC[C@H](C(=O)N1CCCC[C@H]1C(=O)O[C@H](CCc1ccc(OC)c(OC)c1)c1ccccc1OCC(=O)NCCCCCCOc1cccc2c1C(=O)N(C1CCC(=O)NC1=O)C2=O)c1cc(OC)c(OC)c(OC)c1` (stereo partly shown) [dTAG-13], the “Bioluminescent signal 4 h after each of the three administrations” value in experiment [1] (35 mg kg^−1 IP) is “Consistent loss of bioluminescent signal”. Besides, the “Total flux for each mouse” value in experiment [1] (Baseline (day 0, before treatment), MV4;11 luc-FKBP12F36V) is 4289000 and 889100 and 3230000 and 316100 and 985400; in experiment [1] (No treatment (day 4), 28 h after third and final treatment) it was 49160000 and 34070000 and 76150000 and 45320000; in experiment [1] (Treatment #1 (day 1), 4 h after 35 mg kg^−1 IP), 6613000 and 7583000 and 6309000 and 11170000 and 4709000; in experiment [1] (Treatment #2 (day 2), 4 h after 35 mg kg^−1 IP), 5587000 and 3752000 and 2682000 and 8076000 and 3987000; in experiment [1] (Treatment #3 (day 3), 4 h after 35 mg kg^−1 IP), 7807000 and 6324000 and 1630000 and 11780000 and 6875000.
Regarding `CCC(C(=O)N1CCCCC1C(=O)OC(CCc1ccc(OC)c(OC)c1)c1ccccc1OCC(=O)NCCCCCCC(=O)NC(C(=O)N1CC(O)CC1C(=O)NC(C)c1ccc(-c2scnc2C)cc1)C(C)(C)C)c1cc(OC)c(OC)c(OC)c1` (stereo not shown) [dTAG^V-1-NEG], the “Relative growth (luminescence values relative to day 0)” value in experiment [2] (day 0, technical replicates) is 0.9945 and 0.95 and 1.001 and 0.9766 and 1.051 and 1.053 and 1.003 and 0.9709; in experiment [2] (day 3, technical replicates), 5.114 and 5.468 and 5.612 and 5.24 and 5.293 and 5.6444 and 5.751 and 5.436; in experiment [2] (day 5, technical replicates), 9.983 and 9.4493 and 9.47 and 9.104 and 8.952 and 10.1487 and 8.526 and 9.042; in experiment [2] (day 7, technical replicates) it was 11.0059 and 11.6763 and 12.0315 and 12.3084 and 11.8629 and 11.627 and 12.7076 and 12.9032; in experiment [3] (day 0, technical replicates), 0.9807 and 0.9337 and 1.074 and 0.9661 and 0.9369 and 1.05 and 0.936 and 1.123; in experiment [3] (day 3, technical replicates), 8.012 and 8.414 and 8.126 and 8.231 and 8.041 and 7.9927 and 8.641 and 7.789. The “Relative growth (luminescence values relative to day 0)” value was 16.2325 and 15.4561 and 17.0235 and 15.0335 and 14.9405 and 13.797 and 14.8812 and 15.4178 in experiment [3] (day 5, technical replicates); 19.7372 and 19.9296 and 22.6222 and 21.4195 and 20.5619 and 20.5847 and 22.7467 and 21.3128 in experiment [3] (day 7, technical replicates). In addition, the “Antiproliferation (relative growth)” value in experiment [2] (Time 0 days) is 0.9369 and 1.039 and 1.049 and 1.03 and 0.9405 and 1.006 and 0.9678 and 1.0315; in experiment [2] (Time 3 days), 6.723 and 6.994 and 7.2 and 7.295 and 6.686 and 6.901 and 6.814 and 7.587; in experiment [2] (Time 5 days), 15.6789 and 14.8903 and 15.2182 and 14.1831 and 15.4702 and 12.9669 and 13.0283 and 13.2307; in experiment [2] (Time 7 days) it was 17.0897 and 17.8515 and 16.9942 and 16.7495 and 17.7706 and 16.0177 and 15.7257 and 18.5474. The “Antiproliferative effects upon EWS/FLI degradation” value in experiment [2] (longer time-points) is “absent”.

The values are drawn from article PMC7501296, “Rapid and direct control of target protein levels with VHL-recruiting dTAG molecules” (Nature Communications, 2020).
